In ChEMBL document CHEMBL1145989, “Development of a water-soluble matrix metalloproteinase inhibitor as an intra-arterial infusion drug for prevention of restenosis after angioplasty” (J Med Chem, 2003):

How the values were obtained:
[1] = molecular target: Macrophage metalloelastase (Homo sapiens, UniProt P39900); assay: Inhibition of human Matrix metalloprotease-12 (MMP-12)
[2] = molecular target: Matrix metalloproteinase-9 (Homo sapiens, UniProt P14780); assay: Inhibition of human Matrix metalloprotease-9 (MMP-9)
[3] = molecular target: 72 kDa type IV collagenase (Homo sapiens, UniProt P08253); assay: Inhibition of human Matrix metalloprotease-2 (MMP-2)
Chain of 72 kDa type IV collagenase (P08253 whole entry): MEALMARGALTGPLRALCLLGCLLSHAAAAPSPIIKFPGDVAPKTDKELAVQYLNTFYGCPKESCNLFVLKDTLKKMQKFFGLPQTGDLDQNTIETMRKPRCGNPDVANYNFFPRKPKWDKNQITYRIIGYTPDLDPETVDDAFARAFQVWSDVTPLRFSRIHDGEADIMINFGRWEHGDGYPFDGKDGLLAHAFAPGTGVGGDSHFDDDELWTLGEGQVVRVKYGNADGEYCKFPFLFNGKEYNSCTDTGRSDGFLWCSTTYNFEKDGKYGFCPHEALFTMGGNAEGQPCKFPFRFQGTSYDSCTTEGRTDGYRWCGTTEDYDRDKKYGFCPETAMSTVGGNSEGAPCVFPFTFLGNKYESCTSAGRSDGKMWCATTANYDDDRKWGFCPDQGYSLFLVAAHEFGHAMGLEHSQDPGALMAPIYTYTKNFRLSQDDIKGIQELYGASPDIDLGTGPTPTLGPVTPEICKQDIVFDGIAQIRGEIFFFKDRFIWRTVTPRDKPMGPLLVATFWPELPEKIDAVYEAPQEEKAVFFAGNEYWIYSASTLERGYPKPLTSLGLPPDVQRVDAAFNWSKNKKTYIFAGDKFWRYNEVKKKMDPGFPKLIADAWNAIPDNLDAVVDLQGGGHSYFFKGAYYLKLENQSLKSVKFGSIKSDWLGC

Chain of Matrix metalloproteinase-9 (P14780 whole entry): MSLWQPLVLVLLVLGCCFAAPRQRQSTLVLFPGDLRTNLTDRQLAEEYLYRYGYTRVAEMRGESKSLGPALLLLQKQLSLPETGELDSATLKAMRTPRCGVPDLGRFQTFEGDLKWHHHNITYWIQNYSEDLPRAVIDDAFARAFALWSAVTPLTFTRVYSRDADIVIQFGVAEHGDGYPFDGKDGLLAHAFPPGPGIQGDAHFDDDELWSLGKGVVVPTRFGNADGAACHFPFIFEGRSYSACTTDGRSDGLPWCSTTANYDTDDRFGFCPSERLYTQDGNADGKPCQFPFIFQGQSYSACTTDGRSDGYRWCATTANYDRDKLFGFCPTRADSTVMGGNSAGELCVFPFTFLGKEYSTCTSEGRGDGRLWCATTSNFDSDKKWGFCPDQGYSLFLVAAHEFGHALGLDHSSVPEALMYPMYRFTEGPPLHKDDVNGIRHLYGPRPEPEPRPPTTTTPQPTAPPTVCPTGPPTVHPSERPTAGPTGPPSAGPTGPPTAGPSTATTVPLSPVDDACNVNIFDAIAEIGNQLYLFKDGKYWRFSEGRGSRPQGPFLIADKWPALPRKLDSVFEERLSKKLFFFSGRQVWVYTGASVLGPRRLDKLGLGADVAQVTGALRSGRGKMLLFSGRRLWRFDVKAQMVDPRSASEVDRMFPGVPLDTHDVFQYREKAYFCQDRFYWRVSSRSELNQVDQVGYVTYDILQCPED
Chain of Macrophage metalloelastase (P39900 whole entry): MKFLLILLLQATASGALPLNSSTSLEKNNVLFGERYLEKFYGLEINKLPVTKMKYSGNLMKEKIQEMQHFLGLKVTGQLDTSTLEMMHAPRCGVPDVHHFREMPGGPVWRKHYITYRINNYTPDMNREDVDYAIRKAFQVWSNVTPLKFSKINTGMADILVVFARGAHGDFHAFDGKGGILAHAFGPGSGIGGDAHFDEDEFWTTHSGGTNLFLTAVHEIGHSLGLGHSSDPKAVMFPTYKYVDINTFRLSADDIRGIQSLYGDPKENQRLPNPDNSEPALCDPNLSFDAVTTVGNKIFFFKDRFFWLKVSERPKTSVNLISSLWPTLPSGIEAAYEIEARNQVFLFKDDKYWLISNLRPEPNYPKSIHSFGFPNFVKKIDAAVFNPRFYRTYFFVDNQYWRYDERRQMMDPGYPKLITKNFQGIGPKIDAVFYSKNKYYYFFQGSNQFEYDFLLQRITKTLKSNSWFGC

SMILES: C[C@@H](C[C@@H](CO)NC(=O)c1ccc(Oc2ccccc2)cc1)C(=O)NO
- IC50 [1]: 3.5 nM
- IC50 [2]: 0.8 nM
- IC50 [3]: 0.65 nM

SMILES: C[C@@H](C[C@@H](COC(=O)CCC(=O)O)NC(=O)c1ccc(Oc2ccccc2)cc1)C(=O)NO
- IC50 [1]: 2.6 nM
- IC50 [2]: 2.8 nM
- IC50 [3]: 1.1 nM
